Test [1] relates to formalin-induced paw licking. As to the kind of experiment: Mouse formalin test. The format is in vivo. To be noted: 20 mg/kg i.p. The procedure:
An injection of 0.5% formalin is made into the planter region of a mouse right hind paw. This elicits a distinct biphasic behavioral profile characterized by the mouse licking the affected paw. Immediately following the injection the mouse licks the paw for about 10 minutes. This is phase 1 (acute) and is followed by a brief latent period where there is little behavioral activity. A more prolonged period of about 20 to 30 minutes of paw licking ensues which constitutes phase 2 (inflammatory).
Prior to the administration of the active peptide, drug or vehicle each mouse undergoes a 15-minute conditioning period in one of several 6″ tall plexiglass observation tubes (4″ diameter) that are placed in front of a mirror. […] One hour after treatment, formalin was injected sub-dermally (20 μl; 27 gauge needle) into the plantar surface of the right hind foot. The bevel of the needle is placed facing down toward the skin surface. Following the injection of the formalin each animal is observed for first 2 minutes of each 5 minute epoch for a total of 45 minutes. The cumulative length of licking for each 2 minute time period was measured. An animal receiving the requisite volume of vehicle was alternated with each mouse given GAL-BBB2, Gal 1-16, or gabapentin. Animals were euthanized following the conclusion of the experiment.
Area under the curve (AUC) determination was made using the GraphPad Prism Version 3.03. Total AUC is calculated for both the test and control groups for both the acute and inflammatory phases. The AUC for individual animals for each phase is also calculated and converted to percentage of total AUC of control. The average percentages and SEM for both the drug treated and control were calculated and tested for significant difference.

Test [2] deals with T1, hGalR2 (Homo sapiens, UniProt O43603).
T1 sequence (O43603 1-387): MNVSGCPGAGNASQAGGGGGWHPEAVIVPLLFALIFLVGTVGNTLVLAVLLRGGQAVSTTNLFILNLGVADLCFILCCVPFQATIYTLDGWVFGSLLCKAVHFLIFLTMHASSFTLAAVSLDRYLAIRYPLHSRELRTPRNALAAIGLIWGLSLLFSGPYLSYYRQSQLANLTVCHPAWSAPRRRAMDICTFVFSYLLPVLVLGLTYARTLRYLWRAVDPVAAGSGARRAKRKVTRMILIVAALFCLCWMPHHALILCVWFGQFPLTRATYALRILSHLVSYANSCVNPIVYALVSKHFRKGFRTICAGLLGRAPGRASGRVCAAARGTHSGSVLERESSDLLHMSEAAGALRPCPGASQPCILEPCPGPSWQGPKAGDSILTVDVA
To be noted: cited from earlier work.

For test [3], the system named is 6 Hz limbic seizures. As to the kind of experiment: 6 Hz limbic (psychomotor) seizure test. The format is in vivo, CF-1 mice. As to conditions: 4 mg/kg, i.p. From the text: Mice not displaying limbic seizures were considered protected.
Test [4] deals with T2, hGalR3 (Homo sapiens, UniProt O60755).
T2 sequence (O60755 1-368): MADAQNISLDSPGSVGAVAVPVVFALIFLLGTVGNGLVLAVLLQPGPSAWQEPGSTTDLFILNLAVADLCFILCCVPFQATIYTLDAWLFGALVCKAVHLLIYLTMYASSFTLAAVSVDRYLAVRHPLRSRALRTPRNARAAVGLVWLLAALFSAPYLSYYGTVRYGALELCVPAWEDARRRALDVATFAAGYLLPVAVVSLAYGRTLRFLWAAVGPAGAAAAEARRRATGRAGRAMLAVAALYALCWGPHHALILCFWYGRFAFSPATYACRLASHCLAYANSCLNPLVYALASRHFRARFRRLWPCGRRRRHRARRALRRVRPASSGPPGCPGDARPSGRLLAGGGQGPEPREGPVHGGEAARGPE
To be noted: Table 18; compiled from literature; read-out: Affinity, KD hGalR3; cited from earlier work.

Test [5] deals with sound-induced seizures. In words: Frings audiogenic seizure-susceptible mouse model. The format is in vivo. To be noted: 20 mg/kg i.p. The procedure: The two modified galanin analogs (GAL-BBB1 and GAL-BBB2) were administered i.p. to a group of Frings audiogenic seizure susceptible mice in a dose of 4 mg/kg. At various times after administration (i.e., 15, 30, 60, 120, and 240 min) each mouse was placed into a cylindrical test chamber fitted with an audio transducer and challenged with a high-intensity sound stimulus (110 dB, 11 KHz for 20 sec). Animals not displaying tonic hind-limb extension were considered protected. […] In a subsequent study, anticonvulsant efficacy was quantitated at the time to peak effect (i.e., 1 h) in a dose-response study.
The ability of individual modified analogs to prevent seizures induced by sound in the AGS-susceptible Frings mouse model can be assessed at the time of peak effect (White et al., 1992). For this test, individual mice are placed into a plexiglass cylinder (diameter, 15 cm; height, 18 cm) fitted with an audio transducer (Model AS-ZC; FET Research and Development, Salt Lake City, Utah), and exposed to a sound stimulus of 110 decibels (11 KHz) delivered for 20 seconds. Sound-induced seizures are characterized by wild running followed by loss of righting reflex with forelimb and hindlimb tonic extension. Mice not displaying hindlimb tonic extension are considered protected.
At various times after administration (i.e., 15, 30, 60, 120, and 240 min) each mouse was placed into a cylindrical test chamber fitted with an audio transducer and challenged with a high-intensity sound stimulus (110 dB, 11 KHz for 20 sec).

The values that follow come from US20180340012A1, “METHODS AND CO[…] TO IMPROVING PROPERTIES OF PHARMACOLOGICAL AGENTS TARGETING NERVOUS SYSTEM” (University of Utah Research Foundation, priority 2006, published 2018).

Where two headings read alike, the source gives them in different places.

For the sequence “GWTLNSAGYLLGPHAV [Gal(1-16), reference compound]”, the “activity in formalin test” value in test [1] is “inactive”. The Kd is 8.3 nM in test [2] (Table 2, reference ligands, same values as Table 18, read-out: affinity toward galanin receptors, GalR2); 8.3 nM in test [2] (Table 18, compiled from literature, read-out: Affinity, KD hGalR2); 6.5 nM in test [4]. In addition, the “% Protection at 1, 2 and 4 hours (result in words)” value in test [3] is “Not active”. Also, the “anticonvulsant activity” value in test [5] is “inactive”.
